Reference: article PMC11845477, “Exploring the principles behind antibiotics with limited resistance” (Nature Communications, 2025)
Like-named read-outs stand apart in the source and are kept apart here.

Columns and labels:
[1] = tested on: A. baumannii ATCC 17978 (SEN) and A. baumannii ATCC BAA-1605 (MDR); test: Frequency-of-resistance (FoR) assay, relative MIC of mutants; format: cell-based, Acinetobacter baumannii; details: for MIC: Acinetobacter baumannii, read-out: MIC of evolved line, Acinetobacter baumannii ATCC 17978 (AB-SEN)
In short: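 Spontaneous resistant mutants selected on antibiotic agar (≈10^10 cells, 48 h, 37 °C); MICs of ten picked colonies measured by 18 h broth microdilution (OD600 < 0.05 = inhibition) and expressed as MICevolved/MICancestor.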

[2] = tested on: K. pneumoniae ATCC 10031 (SEN) and K. pneumoniae ATCC 700603 (MDR); test: Adaptive laboratory evolution (ALE), relative MIC of evolved lines; format: cell-based, Klebsiella pneumoniae
In short: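 Ten parallel populations per antibiotic–ancestor pair were evolved in MHB at 37 °C, starting near 50% growth-inhibiting drug. Every 72 h they were passaged into 0.5–2.5× increasing concentrations, keeping the highest-drug well with OD600 > 0.2.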

[3] = Acinetobacter baumannii ATCC 17978 (AB-SEN), evolved line 1 versus ancestor
[4] = Acinetobacter baumannii ATCC 17978 (AB-SEN), evolved line 2 versus ancestor
[5] = Acinetobacter baumannii ATCC 17978 (AB-SEN), evolved line 3 versus ancestor
[6] = KP-SEN (Klebsiella pneumoniae ATCC 10031), evolved line 1
[7] = KP-SEN (Klebsiella pneumoniae ATCC 10031), evolved line 2
[8] = KP-SEN (Klebsiella pneumoniae ATCC 10031), evolved line 3
[9] = KP-SEN (Klebsiella pneumoniae ATCC 10031), evolved line 4
[10] = KP-SEN (Klebsiella pneumoniae ATCC 10031), evolved line 6
[11] = KP-SEN (Klebsiella pneumoniae ATCC 10031), evolved line 8
[12] = KP-SEN (Klebsiella pneumoniae ATCC 10031), evolved line 9
[13] = KP-SEN (Klebsiella pneumoniae ATCC 10031), evolved line 10
[14] = KP-SEN, Klebsiella pneumoniae ATCC 10031, evolved line 5
[15] = KP-SEN, Klebsiella pneumoniae ATCC 10031, evolved line 7

CN(C)c1cc(CNCC(C)(C)C)c(O)c2c1C[C@H]1C[C@H]3[C@H](N(C)C)C(O)=C(C(N)=O)C(=O)[C@@]3(O)C(O)=C1C2=O [Omadacycline]
4 µg/mL: MIC ([1]; evolved line 1) | MIC ([1]; evolved line 2) | MIC ([1]; evolved line 3)
32: Relative MIC ([2]; KP-SEN ATCC 10031, evolved line 7, evolved line vs ancestor) | Relative MIC [2, 15]
2.107: Relative MIC (log10) ([2]; KP-SEN (Klebsiella pneumoniae ATCC 10031), evolved line 1 adapted to the named antibiotic) | Relative MIC (log10) ([2]; KP-SEN (Klebsiella pneumoniae ATCC 10031), evolved line 2 adapted to the named antibiotic) | Relative MIC (log10) ([2]; KP-SEN (Klebsiella pneumoniae ATCC 10031), evolved line 5 adapted to the named antibiotic) | Relative MIC (log10) ([2]; KP-SEN (Klebsiella pneumoniae ATCC 10031), evolved line 6 adapted to the named antibiotic) | Relative MIC (log10) ([2]; KP-SEN (Klebsiella pneumoniae ATCC 10031), evolved line 9 adapted to the named antibiotic)
64: Relative MIC [2, 8] | Relative MIC [2, 9] | Relative MIC [2, 11] | Relative MIC ([2]; KP-SEN ATCC 10031, evolved line 3, evolved line vs ancestor) | Relative MIC ([2]; KP-SEN ATCC 10031, evolved line 4, evolved line vs ancestor) | Relative MIC ([2]; KP-SEN ATCC 10031, evolved line 8, evolved line vs ancestor)
128: Relative MIC [2, 6] | Relative MIC [2, 7] | Relative MIC [2, 10] | Relative MIC [2, 12] | Relative MIC [2, 13] | Relative MIC ([2]; KP-SEN ATCC 10031, evolved line 1, evolved line vs ancestor) | Relative MIC ([2]; KP-SEN ATCC 10031, evolved line 2, evolved line vs ancestor) | Relative MIC ([2]; KP-SEN ATCC 10031, evolved line 5, evolved line vs ancestor) | Relative MIC ([2]; KP-SEN ATCC 10031, evolved line 6, evolved line vs ancestor) | Relative MIC ([2]; KP-SEN ATCC 10031, evolved line 9, evolved line vs ancestor) | Relative MIC ([2]; KP-SEN ATCC 10031, evolved line 10, evolved line vs ancestor) | Relative MIC [2, 14]
8: Relative MIC [1, 3] | Relative MIC [1, 4] | Relative MIC [1, 5]

CC(C)c1ccc(Cn2ccc3c4c(N)nc(NC5CC5)nc4ccc32)cc1 [SCH79797]
4: Relative MIC ([2]; ALE, Klebsiella pneumoniae ATCC 10031 (KP-SEN), evolved line 2) | Relative MIC ([2]; ALE, Klebsiella pneumoniae ATCC 10031 (KP-SEN), evolved line 7) | Relative MIC ([2]; KP-SEN (K. pneumoniae ATCC 10031), evolved line 2 vs ancestor) | Relative MIC ([2]; KP-SEN (K. pneumoniae ATCC 10031), evolved line 7 vs ancestor) | Relative MIC [2, 7] | Relative MIC [2, 15] | Relative MIC ([2]; Klebsiella pneumoniae ATCC 10031 (KP-SEN), evolved line 2) | Relative MIC ([2]; Klebsiella pneumoniae ATCC 10031 (KP-SEN), evolved line 7)
2: Relative MIC [1, 3] | Relative MIC [1, 4] | Relative MIC [1, 5] | Relative MIC ([1]; FoR assay, Acinetobacter baumannii ATCC 17978 (AB-SEN), evolved line 1) | Relative MIC ([1]; FoR assay, Acinetobacter baumannii ATCC 17978 (AB-SEN), evolved line 2) | Relative MIC ([1]; FoR assay, Acinetobacter baumannii ATCC 17978 (AB-SEN), evolved line 3) | Relative MIC ([2]; ALE, Klebsiella pneumoniae ATCC 10031 (KP-SEN), evolved line 3) | Relative MIC ([2]; ALE, Klebsiella pneumoniae ATCC 10031 (KP-SEN), evolved line 6) | Relative MIC ([2]; ALE, Klebsiella pneumoniae ATCC 10031 (KP-SEN), evolved line 10) | Relative MIC ([2]; KP-SEN (K. pneumoniae ATCC 10031), evolved line 3 vs ancestor) | Relative MIC ([2]; KP-SEN (K. pneumoniae ATCC 10031), evolved line 6 vs ancestor) | Relative MIC ([2]; KP-SEN (K. pneumoniae ATCC 10031), evolved line 10 vs ancestor) | Relative MIC [2, 8] | Relative MIC [2, 10] | Relative MIC [2, 13] | Relative MIC ([2]; Klebsiella pneumoniae ATCC 10031 (KP-SEN), evolved line 3) | Relative MIC ([2]; Klebsiella pneumoniae ATCC 10031 (KP-SEN), evolved line 6) | Relative MIC ([2]; Klebsiella pneumoniae ATCC 10031 (KP-SEN), evolved line 10)
16 µg/mL: MIC of evolved line ([2]; KP-SEN (K. pneumoniae ATCC 10031), evolved line 2 of the given antibiotic) | MIC of evolved line ([2]; KP-SEN (K. pneumoniae ATCC 10031), evolved line 7 of the given antibiotic)
16: Relative MIC ([2]; ALE, Klebsiella pneumoniae ATCC 10031 (KP-SEN), evolved line 1) | Relative MIC ([2]; ALE, Klebsiella pneumoniae ATCC 10031 (KP-SEN), evolved line 4) | Relative MIC ([2]; KP-SEN (K. pneumoniae ATCC 10031), evolved line 1 vs ancestor) | Relative MIC ([2]; KP-SEN (K. pneumoniae ATCC 10031), evolved line 4 vs ancestor) | Relative MIC [2, 6] | Relative MIC [2, 9] | Relative MIC ([2]; Klebsiella pneumoniae ATCC 10031 (KP-SEN), evolved line 1) | Relative MIC ([2]; Klebsiella pneumoniae ATCC 10031 (KP-SEN), evolved line 4)
8: Relative MIC ([2]; ALE, Klebsiella pneumoniae ATCC 10031 (KP-SEN), evolved line 8) | Relative MIC ([2]; ALE, Klebsiella pneumoniae ATCC 10031 (KP-SEN), evolved line 9) | Relative MIC ([2]; KP-SEN (K. pneumoniae ATCC 10031), evolved line 8 vs ancestor) | Relative MIC ([2]; KP-SEN (K. pneumoniae ATCC 10031), evolved line 9 vs ancestor) | Relative MIC [2, 11] | Relative MIC [2, 12] | Relative MIC ([2]; Klebsiella pneumoniae ATCC 10031 (KP-SEN), evolved line 8) | Relative MIC ([2]; Klebsiella pneumoniae ATCC 10031 (KP-SEN), evolved line 9)
64 µg/mL: MIC of evolved line ([2]; KP-SEN (K. pneumoniae ATCC 10031), evolved line 1 of the given antibiotic) | MIC of evolved line ([2]; KP-SEN (K. pneumoniae ATCC 10031), evolved line 4 of the given antibiotic)
0.9031 log10: Relative MIC (log10) [2, 11] | Relative MIC (log10) [2, 12]
1: Relative MIC ([1]; Acinetobacter baumannii ATCC BAA 1605 (AB-MDR), evolved line 1 versus ancestor) | Relative MIC ([1]; Acinetobacter baumannii ATCC BAA 1605 (AB-MDR), evolved line 2 versus ancestor) | Relative MIC ([1]; Acinetobacter baumannii ATCC BAA 1605 (AB-MDR), evolved line 3 versus ancestor) | Relative MIC ([1]; FoR assay, Acinetobacter baumannii ATCC BAA 1605 (AB-MDR), evolved line 1) | Relative MIC ([1]; FoR assay, Acinetobacter baumannii ATCC BAA 1605 (AB-MDR), evolved line 2) | Relative MIC ([1]; FoR assay, Acinetobacter baumannii ATCC BAA 1605 (AB-MDR), evolved line 3)
32 µg/mL: MIC of evolved line ([2]; KP-SEN (K. pneumoniae ATCC 10031), evolved line 8 of the given antibiotic) | MIC of evolved line ([2]; KP-SEN (K. pneumoniae ATCC 10031), evolved line 9 of the given antibiotic)
4 µg/mL: MIC of evolved line ([1]; Acinetobacter baumannii ATCC BAA 1605 (AB-MDR), evolved line 2) | MIC of evolved line ([1]; Acinetobacter baumannii ATCC BAA 1605 (AB-MDR), evolved line 3)
1.505 log10: Relative MIC (log10) [2, 14]
8 µg/mL: MIC of evolved line ([1]; Acinetobacter baumannii ATCC 17978 (AB-SEN), evolved line 1) | MIC of evolved line ([1]; Acinetobacter baumannii ATCC 17978 (AB-SEN), evolved line 2) | MIC of evolved line ([1]; Acinetobacter baumannii ATCC 17978 (AB-SEN), evolved line 3) | MIC of evolved line ([2]; KP-SEN (K. pneumoniae ATCC 10031), evolved line 3 of the given antibiotic) | MIC of evolved line ([2]; KP-SEN (K. pneumoniae ATCC 10031), evolved line 6 of the given antibiotic) | MIC of evolved line ([2]; KP-SEN (K. pneumoniae ATCC 10031), evolved line 10 of the given antibiotic)
128 µg/mL: MIC of evolved line ([2]; KP-SEN (K. pneumoniae ATCC 10031), evolved line 5 of the given antibiotic)
32: Relative MIC ([2]; ALE, Klebsiella pneumoniae ATCC 10031 (KP-SEN), evolved line 5) | Relative MIC ([2]; KP-SEN (K. pneumoniae ATCC 10031), evolved line 5 vs ancestor) | Relative MIC [2, 14] | Relative MIC ([2]; Klebsiella pneumoniae ATCC 10031 (KP-SEN), evolved line 5)
1.204 log10: Relative MIC (log10) [2, 6] | Relative MIC (log10) [2, 9]
2 µg/mL: MIC of evolved line ([1]; Acinetobacter baumannii ATCC BAA 1605 (AB-MDR), evolved line 1)
